Results taken from patent US11123426B2, “Use of vista agonists and antagonists to suppress or enhance humoral immunity” (THE TRUSTEES OF DARTMOUTH COLLEGE, priority 2014, dated 2021).

Legend:
Type in all cases: cell-based, mice
Ly6C+CD11b+ MDSCs [1] = assay: 3H-thymidine proliferation assay: MDSC suppression of B-cell responsiveness with VISTA−/− responder spleen cells (α-CD40 and IL-4); details: FIG. 5A
Method: (§1) 3H-Thymidine incorporation proliferation assays. For responder cells, 5×10^5 non-infected spleen cells, which were either non-fractionated or CD19+ purified, were plated into 96 well flat bottom plates along with 1.6×105 (unless otherwise indicated) CD11b+Ly6G+, or CD11b+Ly6C+, enriched suppressor cells obtained from spleens of 5-w.p.i. LP-BM5 mice of the indicated w.t. B6 or B6 knock-out strains. […] For the percent suppression calculation, first, the percent residual responsiveness (R) was calculated as follows: R=(cpm of co-cultured responder cells and experimental suppressor cells)[…](cpm of co-cultured responder cells and control, non-infected suppressor cells)×100%. Standard deviations of the mean were determined for triplicate wells, and were statistically compared by the two-tailed, two sample equal variance, Student T test. […]
This example relates to the experiments in FIG. 5. […] The % suppression was calculated for both (A) and (B) by cpm responder 3H thymidine incorporation. […]

Ly6C+CD11b+ MDSCs [2] = assay: 3H-thymidine proliferation assay: MDSC suppression of T-cell responsiveness, w.t. B6 responder spleen cells stimulated with Con A; details: FIG. 2B, MDSCs pretreated with 0.8 mM L-NMMA or 80 ug/ml α-VISTA (13F3), R:S 3:1, three days
Method: as §1

[3] = tested on: monocytic MDSCs (Ly6C+CD11b+); assay: CFSE dilution proliferation assay of CD19+ B cells with monocytic MDSCs; details: FIG. 4, w.t. MDSCs, CFSE labeled VISTA−/− responders
Method: CFSE dilution proliferation assays. Naïve responder splenocytes were labeled with 5.iM CFSE (Cell trace, CFSE proliferation Kit, Molecular Probes, Eugene, Oreg.) in PBS/0.5% BSA for 10 minutes at 37° C. followed by the addition of cold 10% FBS in RPM1 for 5 minutes on ice. After three cold 10% FCS/RPMI washes, cell cultures were set up in the same manner as that for the 3H-thymidine incorporation proliferation assays described above. On culture day 4, wells were stained with monoclonal antibody (mAb): ct-CD19-PerCP (Biolegend, San Diego, Calif.) and were analyzed on a FACSCalibur flow cytometer (BD bioscience, San Jose, Calif.).
This example relates to the experiments in FIG. 4. In these experiments purified monocytic MDSCs (Ly6C+CD11b+) from 5 week LP-BM5 infected mice of the indicated strains, show differing patterns of suppression of naïve VISTA−/− spleen cell proliferation as assessed by flow cytometry. CFSE labeled VISTA−/− responder cells were cultured for […] in the presence (+) or absence (−) of ct-CD40+ IL-4, and with or without monocytic MDSCs (a) (−); (b) (+) (grey shaded curves); (c) (+), W.t. MDSCs (in black open curves); (d) (+), DNMMA treated W.t. […] MDSCs; Cells from all cultures were stained at the termination of a four day incubation, with ct-CD19 fluorochrome conjugated mAb and CFSE dilution was also assessed by FACS. […]

Ly6C+CD11b+ MDSCs [4] = assay: 3H-thymidine proliferation assay: MDSC suppression of B-cell responsiveness, w.t. B6 responder spleen cells stimulated with α-CD40 and IL-4; details: FIG. 2A; MDSCs pretreated one hour with 0.8 mM L-NMMA or 80 ug/ml α-VISTA (13F3); R:S 3:1; three days
Method: as §1

CNC(=N)NCCC[C@H](N)C(=O)O [LNMMA, NG-monomethyl-L-Arginine]
extent of blocking of VISTA−/− MDSC suppression of B-cell responsiveness (Ly6C+CD11b+ MDSCs [1]; MDSC of VISTA−/− origin): ~100% | blocking of w.t. MDSC suppression of B-cell responsiveness (Ly6C+CD11b+ MDSCs [1]; w.t. MDSC): partially blocked | blocking of MDSC suppression of T-cell responsiveness (Ly6C+CD11b+ MDSCs [2]): essentially completely dependent on iNOS/NO | restoration of B-cell proliferation curve towards control B cells stimulated in absence of MDSCs (CFSE) [3]: partially restored | blocking of MDSC suppression of B-cell responsiveness (Ly6C+CD11b+ MDSCs [4]): ~50%
